Results as given in ChEMBL document CHEMBL4507289, “Data for DCP probe GSM1” (2021).

Key:
[1] = biological target: 5-hydroxytryptamine receptor 5A (Homo sapiens) (UniProt P47898); details: Compound concentration 10.0 uM
[2] = biological target: Activated CDC42 kinase 1 (Homo sapiens) (UniProt Q07912); details: Compound concentration 1000.0 nM
[3] = biological target: Membrane-associated tyrosine- and threonine-specific cdc2-inhibitory kinase (Homo sapiens) (UniProt Q99640); details: Compound concentration 1000.0 nM
[4] = biological target: Protein kinase C theta type (Homo sapiens) (UniProt Q04759); details: Compound concentration 1000.0 nM
[5] = biological target: 5'-AMP-activated protein kinase catalytic subunit alpha-2 (Homo sapiens) (UniProt P54646); details: Compound concentration 1000.0 nM
[6] = biological target: Serine/threonine-protein kinase Chk2 (Homo sapiens) (UniProt O96017); details: Compound concentration 1000.0 nM
[7] = test system: Phosphatidylinositol 4,5-bisphosphate 3-kinase catalytic subunit alpha isoform (Homo sapiens), P42336 [E542K]; details: Compound concentration 1000.0 nM
[8] = biological target: Phosphorylase b kinase regulatory subunit alpha, liver isoform (Homo sapiens) (UniProt P46019); details: Compound concentration 1000.0 nM
[9] = biological target: Cyclin-dependent kinase 18 (Homo sapiens) (UniProt Q07002); details: Compound concentration 1000.0 nM
[10] = biological target: Sigma intracellular receptor 2 (Homo sapiens, UniProt Q5BJF2); assay: GPCRScan assay: inhibition of Sigma 2; set-up: radioligand conc. used [nm] 5.0, parental cells HEKT
Sigma intracellular receptor 2, sequence (Q5BJF2 whole entry): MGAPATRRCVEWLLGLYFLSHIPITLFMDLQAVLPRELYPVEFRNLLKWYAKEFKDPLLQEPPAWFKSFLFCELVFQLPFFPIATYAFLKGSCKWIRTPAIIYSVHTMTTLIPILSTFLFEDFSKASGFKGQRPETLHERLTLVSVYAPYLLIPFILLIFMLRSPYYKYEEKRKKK

[11] = biological target: Proto-oncogene tyrosine-protein kinase receptor Ret (Homo sapiens) (UniProt P07949); details: Compound concentration 1000.0 nM
[12] = biological target: Death-associated protein kinase 1 (Homo sapiens) (UniProt P53355); details: Compound concentration 1000.0 nM
[13] = biological target: Bone morphogenetic protein receptor type-1A (Homo sapiens) (UniProt P36894); details: Compound concentration 1000.0 nM
[14] = biological target: Phosphatidylinositol 5-phosphate 4-kinase type-2 gamma (Homo sapiens) (UniProt Q8TBX8); details: Compound concentration 1000.0 nM
[15] = biological target: Serine/threonine-protein kinase TAO2 (Homo sapiens) (UniProt Q9UL54); details: Compound concentration 1000.0 nM
Serine/threonine-protein kinase TAO2 (Homo sapiens), sequence (Q9UL54 whole entry): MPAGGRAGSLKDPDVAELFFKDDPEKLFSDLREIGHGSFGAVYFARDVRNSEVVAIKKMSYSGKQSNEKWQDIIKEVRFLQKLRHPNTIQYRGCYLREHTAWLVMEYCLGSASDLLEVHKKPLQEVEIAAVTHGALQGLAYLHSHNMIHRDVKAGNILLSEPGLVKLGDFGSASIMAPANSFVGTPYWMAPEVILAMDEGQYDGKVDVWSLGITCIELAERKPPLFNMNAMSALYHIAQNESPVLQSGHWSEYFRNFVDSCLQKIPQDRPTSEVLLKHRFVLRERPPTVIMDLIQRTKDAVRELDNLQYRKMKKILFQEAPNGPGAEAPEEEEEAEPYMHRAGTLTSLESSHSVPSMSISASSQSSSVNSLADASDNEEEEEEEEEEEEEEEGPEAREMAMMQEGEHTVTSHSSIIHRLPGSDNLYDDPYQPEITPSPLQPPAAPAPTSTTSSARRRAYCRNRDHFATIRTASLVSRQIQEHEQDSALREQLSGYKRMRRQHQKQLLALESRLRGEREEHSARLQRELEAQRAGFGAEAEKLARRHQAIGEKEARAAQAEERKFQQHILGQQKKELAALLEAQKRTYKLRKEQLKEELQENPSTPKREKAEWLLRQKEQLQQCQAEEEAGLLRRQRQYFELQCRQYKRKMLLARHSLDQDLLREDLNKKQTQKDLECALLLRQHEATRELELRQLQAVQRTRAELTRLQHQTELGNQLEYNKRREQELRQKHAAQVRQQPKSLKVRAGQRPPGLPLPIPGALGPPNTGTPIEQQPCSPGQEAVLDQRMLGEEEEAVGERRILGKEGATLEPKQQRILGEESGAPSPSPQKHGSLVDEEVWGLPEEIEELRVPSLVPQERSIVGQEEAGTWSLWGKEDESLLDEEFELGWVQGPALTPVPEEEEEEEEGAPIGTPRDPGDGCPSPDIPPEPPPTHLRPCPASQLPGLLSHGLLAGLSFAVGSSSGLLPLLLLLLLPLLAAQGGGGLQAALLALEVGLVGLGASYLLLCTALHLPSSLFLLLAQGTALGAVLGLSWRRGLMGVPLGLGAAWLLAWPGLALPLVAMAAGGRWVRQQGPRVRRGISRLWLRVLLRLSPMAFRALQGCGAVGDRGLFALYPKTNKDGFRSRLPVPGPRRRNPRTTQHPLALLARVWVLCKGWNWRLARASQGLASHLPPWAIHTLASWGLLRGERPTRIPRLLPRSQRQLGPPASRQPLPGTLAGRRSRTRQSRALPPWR

[16] = biological target: 5'-AMP-activated protein kinase catalytic subunit alpha-1 (Homo sapiens) (UniProt Q13131); details: Compound concentration 1000.0 nM
[17] = biological target: LIM domain kinase 1 (Homo sapiens) (UniProt P53667); details: Compound concentration 1000.0 nM
[18] = biological target: Dual specificity mitogen-activated protein kinase kinase 5 (Homo sapiens) (UniProt Q13163); details: Compound concentration 1000.0 nM
[19] = biological target: 5-hydroxytryptamine receptor 1B (Homo sapiens) (UniProt P28222); details: Compound concentration 10.0 uM
[20] = biological target: Ribosomal protein S6 kinase alpha-5 (Homo sapiens) (UniProt O75582); details: Compound concentration 1000.0 nM
[21] = biological target: SNF-related serine/threonine-protein kinase (Homo sapiens) (UniProt Q9NRH2); details: Compound concentration 1000.0 nM
[22] = biological target: Dual specificity protein kinase CLK3 (Homo sapiens) (UniProt P49761); details: Compound concentration 1000.0 nM
[23] = biological target: Tyrosine-protein kinase HCK (Homo sapiens) (UniProt P08631); details: Compound concentration 1000.0 nM
[24] = biological target: Muscarinic acetylcholine receptor M5 (Homo sapiens) (UniProt P08912); details: Compound concentration 10.0 uM
[25] = biological target: Fibroblast growth factor receptor 2 (Homo sapiens) (UniProt P21802); details: Compound concentration 1000.0 nM
[26] = biological target: Mitogen-activated protein kinase kinase kinase kinase 3 (Homo sapiens) (UniProt Q8IVH8); details: Compound concentration 1000.0 nM
[27] = biological target: Homeodomain-interacting protein kinase 1 (Homo sapiens) (UniProt Q86Z02); details: Compound concentration 1000.0 nM
[28] = biological target: Dual specificity mitogen-activated protein kinase kinase 3 (Homo sapiens) (UniProt P46734); details: Compound concentration 1000.0 nM
Dual specificity mitogen-activated protein kinase kinase 3 (Homo sapiens), sequence (P46734 whole entry): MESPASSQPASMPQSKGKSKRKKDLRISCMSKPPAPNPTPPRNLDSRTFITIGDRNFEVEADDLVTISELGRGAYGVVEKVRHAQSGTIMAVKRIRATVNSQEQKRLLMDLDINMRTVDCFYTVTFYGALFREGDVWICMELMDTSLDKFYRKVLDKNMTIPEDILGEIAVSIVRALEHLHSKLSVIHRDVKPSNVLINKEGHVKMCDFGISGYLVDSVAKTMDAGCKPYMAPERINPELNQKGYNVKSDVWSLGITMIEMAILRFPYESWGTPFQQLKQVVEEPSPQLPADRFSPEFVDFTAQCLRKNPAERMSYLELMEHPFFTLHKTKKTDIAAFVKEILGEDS

[29] = test system: Epidermal growth factor receptor (Homo sapiens), P00533 [UNDEFINED MUTATION]; details: Compound concentration 1000.0 nM
[30] = biological target: Mitogen-activated protein kinase 3 (Homo sapiens) (UniProt P27361); details: Compound concentration 1000.0 nM
[31] = test system: Phosphatidylinositol 4,5-bisphosphate 3-kinase catalytic subunit alpha isoform (Homo sapiens), P42336 [E545K]; details: Compound concentration 1000.0 nM
[32] = biological target: Insulin receptor-related protein (Homo sapiens) (UniProt P14616); details: Compound concentration 1000.0 nM
[33] = biological target: Ephrin type-A receptor 3 (Homo sapiens) (UniProt P29320); details: Compound concentration 1000.0 nM
Ephrin type-A receptor 3 (Homo sapiens), sequence (P29320 whole entry, canonical isoform): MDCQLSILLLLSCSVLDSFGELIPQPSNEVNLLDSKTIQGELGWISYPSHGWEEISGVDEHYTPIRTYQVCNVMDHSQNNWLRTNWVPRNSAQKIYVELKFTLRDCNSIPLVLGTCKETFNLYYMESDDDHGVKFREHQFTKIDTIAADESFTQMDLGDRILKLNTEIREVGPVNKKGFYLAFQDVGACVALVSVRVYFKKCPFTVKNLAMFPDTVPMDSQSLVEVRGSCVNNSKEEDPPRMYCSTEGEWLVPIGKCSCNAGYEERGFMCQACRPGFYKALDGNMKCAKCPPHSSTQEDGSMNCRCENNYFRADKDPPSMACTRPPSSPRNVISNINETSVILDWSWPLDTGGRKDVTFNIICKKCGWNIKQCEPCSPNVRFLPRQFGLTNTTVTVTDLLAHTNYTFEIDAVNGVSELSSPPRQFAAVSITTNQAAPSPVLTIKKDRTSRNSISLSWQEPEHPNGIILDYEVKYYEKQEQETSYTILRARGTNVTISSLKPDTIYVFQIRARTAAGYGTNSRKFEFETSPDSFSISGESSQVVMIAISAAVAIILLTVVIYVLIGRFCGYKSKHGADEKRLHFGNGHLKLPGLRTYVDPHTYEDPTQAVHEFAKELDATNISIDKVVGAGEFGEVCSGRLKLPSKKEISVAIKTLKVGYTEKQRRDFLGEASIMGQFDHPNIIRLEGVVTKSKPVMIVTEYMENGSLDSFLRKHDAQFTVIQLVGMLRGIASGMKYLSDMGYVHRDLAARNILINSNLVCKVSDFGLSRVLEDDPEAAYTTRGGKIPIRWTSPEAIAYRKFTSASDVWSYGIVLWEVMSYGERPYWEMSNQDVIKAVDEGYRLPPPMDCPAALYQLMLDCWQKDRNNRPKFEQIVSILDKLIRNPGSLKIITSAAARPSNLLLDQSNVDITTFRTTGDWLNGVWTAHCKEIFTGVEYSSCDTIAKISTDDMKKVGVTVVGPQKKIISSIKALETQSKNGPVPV

[34] = test system: Phosphatidylinositol 4,5-bisphosphate 3-kinase catalytic subunit alpha isoform (Homo sapiens), P42336 [H1047Y]; details: Compound concentration 1000.0 nM
[35] = biological target: Tyrosine-protein kinase ABL1 (Homo sapiens) (UniProt P00519); details: Compound concentration 1000.0 nM
[36] = biological target: Dual specificity mitogen-activated protein kinase kinase 6 (Homo sapiens) (UniProt P52564); details: Compound concentration 1000.0 nM
[37] = biological target: Serine/threonine-protein kinase Nek1 (Homo sapiens) (UniProt Q96PY6); details: Compound concentration 1000.0 nM
Serine/threonine-protein kinase Nek1 (Homo sapiens), sequence (Q96PY6 whole entry): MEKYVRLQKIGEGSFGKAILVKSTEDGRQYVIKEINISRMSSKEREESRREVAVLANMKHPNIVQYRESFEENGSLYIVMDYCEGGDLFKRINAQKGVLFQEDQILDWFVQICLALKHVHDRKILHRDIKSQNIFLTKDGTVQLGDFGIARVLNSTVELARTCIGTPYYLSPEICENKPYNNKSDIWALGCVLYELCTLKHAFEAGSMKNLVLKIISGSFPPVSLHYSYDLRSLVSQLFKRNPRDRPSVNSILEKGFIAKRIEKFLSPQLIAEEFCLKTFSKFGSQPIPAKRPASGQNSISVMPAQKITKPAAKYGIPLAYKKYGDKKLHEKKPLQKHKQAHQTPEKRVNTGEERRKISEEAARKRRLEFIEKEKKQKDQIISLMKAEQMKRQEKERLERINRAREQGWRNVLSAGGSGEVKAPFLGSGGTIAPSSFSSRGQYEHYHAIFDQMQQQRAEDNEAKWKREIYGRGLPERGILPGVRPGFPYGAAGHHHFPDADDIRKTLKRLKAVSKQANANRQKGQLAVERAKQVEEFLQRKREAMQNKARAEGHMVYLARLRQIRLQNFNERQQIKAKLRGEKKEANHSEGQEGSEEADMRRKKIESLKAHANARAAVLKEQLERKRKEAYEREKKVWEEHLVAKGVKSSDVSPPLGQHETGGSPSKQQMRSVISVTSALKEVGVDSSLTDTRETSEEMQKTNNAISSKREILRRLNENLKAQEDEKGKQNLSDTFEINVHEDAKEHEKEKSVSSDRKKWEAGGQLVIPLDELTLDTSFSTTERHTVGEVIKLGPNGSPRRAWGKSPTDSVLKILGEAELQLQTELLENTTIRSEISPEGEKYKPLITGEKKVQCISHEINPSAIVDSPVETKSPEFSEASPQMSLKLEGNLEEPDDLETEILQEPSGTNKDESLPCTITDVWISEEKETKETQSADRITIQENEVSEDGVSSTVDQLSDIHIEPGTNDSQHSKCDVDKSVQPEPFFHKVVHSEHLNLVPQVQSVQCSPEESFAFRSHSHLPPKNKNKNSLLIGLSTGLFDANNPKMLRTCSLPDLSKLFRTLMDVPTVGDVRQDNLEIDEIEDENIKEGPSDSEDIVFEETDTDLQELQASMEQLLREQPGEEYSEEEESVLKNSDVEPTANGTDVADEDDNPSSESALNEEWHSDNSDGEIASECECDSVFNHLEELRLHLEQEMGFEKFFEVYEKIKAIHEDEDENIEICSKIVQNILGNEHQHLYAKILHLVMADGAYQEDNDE

[38] = biological target: Serine/threonine-protein kinase pim-1 (Homo sapiens) (UniProt P11309); details: Compound concentration 1000.0 nM
[39] = test system: Tyrosine-protein kinase ABL1 (Homo sapiens), P00519 [F317I]; details: Compound concentration 1000.0 nM
[40] = biological target: Serine/threonine-protein kinase SIK3 (Homo sapiens) (UniProt Q9Y2K2); details: Compound concentration 1000.0 nM
[41] = biological target: Tyrosine-protein kinase Srms (Homo sapiens) (UniProt Q9H3Y6); details: Compound concentration 1000.0 nM
[42] = biological target: NT-3 growth factor receptor (Homo sapiens) (UniProt Q16288); details: Compound concentration 1000.0 nM
NT-3 growth factor receptor (Homo sapiens), sequence (Q16288 32-839 limits assumed): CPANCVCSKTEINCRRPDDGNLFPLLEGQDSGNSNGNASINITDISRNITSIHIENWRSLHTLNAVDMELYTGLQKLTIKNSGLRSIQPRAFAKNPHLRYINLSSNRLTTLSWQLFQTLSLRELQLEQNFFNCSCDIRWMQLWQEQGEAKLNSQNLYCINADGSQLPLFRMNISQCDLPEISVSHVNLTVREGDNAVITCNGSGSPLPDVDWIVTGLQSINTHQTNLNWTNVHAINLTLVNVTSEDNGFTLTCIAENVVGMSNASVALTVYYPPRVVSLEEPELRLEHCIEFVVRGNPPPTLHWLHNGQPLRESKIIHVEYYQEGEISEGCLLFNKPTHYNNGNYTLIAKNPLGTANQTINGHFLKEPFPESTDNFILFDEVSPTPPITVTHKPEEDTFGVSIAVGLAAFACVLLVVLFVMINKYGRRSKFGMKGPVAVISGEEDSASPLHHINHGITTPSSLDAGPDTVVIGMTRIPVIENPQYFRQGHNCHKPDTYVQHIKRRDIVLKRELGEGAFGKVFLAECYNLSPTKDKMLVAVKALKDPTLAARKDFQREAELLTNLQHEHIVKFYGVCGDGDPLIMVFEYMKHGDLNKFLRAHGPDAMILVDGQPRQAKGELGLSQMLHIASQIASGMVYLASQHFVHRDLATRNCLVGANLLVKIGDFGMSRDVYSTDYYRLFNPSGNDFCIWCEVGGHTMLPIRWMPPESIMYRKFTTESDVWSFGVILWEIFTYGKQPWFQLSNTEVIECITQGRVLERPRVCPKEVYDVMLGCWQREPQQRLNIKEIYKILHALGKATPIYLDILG

[43] = biological target: Protein kinase C eta type (Homo sapiens) (UniProt P24723); details: Compound concentration 1000.0 nM
[44] = biological target: Serine/threonine-protein kinase MRCK alpha (Homo sapiens) (UniProt Q5VT25); details: Compound concentration 1000.0 nM

For `COc1cc(-c2cn([C@H]3CCc4c(F)cccc4N(CC(F)(F)F)C3=O)nn2)ccc1-n1cnc(C)c1`, the inhibition [1] was 7.61%, the residual activity [2] was 100% and the residual activity [3] was 100%. For the same compound, the residual activity [4] was 89%, the residual activity [5] was 100% and the residual activity [6] was 100%. The residual activity [7] was 88%, the residual activity [8] was 100% and the residual activity [9] was 100%. The Ki ([10]; read-out: Ki) was 890 nM, the residual activity [11] was 84% and the residual activity [12] was 99%. For the same compound, the residual activity [13] was 100%, the residual activity [14] was 100% and the residual activity [15] was 100%. The residual activity [16] was 100%, the residual activity [17] was 100% and the residual activity [18] was 58%. For the same compound, the inhibition [19] was 35%, the residual activity [20] was 73% and the residual activity [21] was 100%. It also gave a residual activity [22] of 83%, a residual activity [23] of 100% and an inhibition [24] of 26.1%. For the same compound, the residual activity [25] was 100%, the residual activity [26] was 100% and the residual activity [27] was 100%. It also gave a residual activity [28] of 100%, a residual activity [29] of 100% and a residual activity [30] of 100%. The residual activity [31] was 70%, the residual activity [32] was 100% and the residual activity [33] was 97%. For the same compound, the residual activity [34] was 100%, the residual activity [35] was 100% and the residual activity [36] was 100%. It also gave a residual activity [37] of 100%, a residual activity [38] of 96% and a residual activity [39] of 79%. The residual activity [40] was 100%, the residual activity [41] was 100% and the residual activity [42] was 95%. It also gave a residual activity [43] of 100% and a residual activity [44] of 100%.
`COc1cc(-c2cn([C@H]3CCc4ccccc4N(CC(F)(F)F)C3=O)nn2)ccc1-n1ccc(C)n1` showed an inhibition [1] of 9.69%, a residual activity [2] of 100% and a residual activity [3] of 100%. The residual activity [4] was 94%, the residual activity [5] was 71% and the residual activity [6] was 100%. For the same compound, the residual activity [7] was 82%, the residual activity [8] was 100% and the residual activity [9] was 100%. It also gave a Ki ([10]; read-out: Ki) of 835 nM, a Ki ([10]; read-out: pKi (converted)) of 741 nM and a residual activity [11] of 91%. The residual activity [12] was 79%, the residual activity [13] was 89% and the residual activity [14] was 100%. It also gave a residual activity [15] of 100%, a residual activity [16] of 100% and a residual activity [17] of 100%. The residual activity [18] was 74%, the inhibition [19] was 30.8% and the residual activity [20] was 71%. It also gave a residual activity [21] of 99%, a residual activity [22] of 95% and a residual activity [23] of 100%. For the same compound, the inhibition [24] was 0.39%, the residual activity [25] was 100% and the residual activity [26] was 100%. For the same compound, the residual activity [27] was 96%, the residual activity [28] was 89% and the residual activity [29] was 100%. For the same compound, the residual activity [30] was 100%, the residual activity [31] was 84% and the residual activity [32] was 100%. For the same compound, the residual activity [33] was 95%, the residual activity [34] was 100% and the residual activity [35] was 75%. For the same compound, the residual activity [36] was 100%, the residual activity [37] was 100% and the residual activity [38] was 100%. The residual activity [39] was 65%, the residual activity [40] was 92% and the residual activity [41] was 84%. The residual activity [42] was 98%, the residual activity [43] was 73% and the residual activity [44] was 100%.
